± gives the expanded uncertainty stated by the source.
How the values were obtained:
[1] = Liquid; for mass density: Vibrating tube method
[2] = refractive index (Na D-line) (dimensionless); conditions: 101 kPa, Liquid, Standard Abbe refractometry

CCn1cc[n+](C)c1.O=C([O-])[C@@H]1CCCN1 [1-ethyl-3-methyl-1H-imidazolium L-prolinate]
[1], 101 kPa, Stabinger Viscometer
Conditions | viscosity [mPa·s]
293.15 K | 1928.4 ± 240
298.15 K | 1194.6 ± 130
303.15 K | 771.51 ± 72
308.15 K | 517.61 ± 42
313.15 K | 359.21 ± 25
318.15 K | 256.92 ± 15
323.15 K | 188.66 ± 9.1
328.15 K | 141.76 ± 5.8
333.15 K | 108.85 ± 3.8
338.15 K | 85.12 ± 2.6
343.15 K | 67.69 ± 1.8
348.15 K | 54.73 ± 1.4
353.15 K | 44.89 ± 1.2

[1], 101.33 kPa
Conditions | mass density [kg/m3]
293.15 K | 1145.9 ± 7.3
298.15 K | 1142.8 ± 7.2
303.15 K | 1139.6 ± 7.2
308.15 K | 1136.4 ± 7.2
313.15 K | 1133.2 ± 7.2
318.15 K | 1130.1 ± 7.1
323.15 K | 1127.1 ± 7.1
328.15 K | 1124 ± 7.1
333.15 K | 1121 ± 7.1
338.15 K | 1118 ± 7.1
343.15 K | 1115 ± 7
348.15 K | 1112 ± 7
353.15 K | 1109.1 ± 7

[2]
Conditions | refractive index
293.15 K | 1.52291 ± 0.00069
298.15 K | 1.52151 ± 0.00069
303.15 K | 1.52009 ± 0.00069
308.15 K | 1.5187 ± 0.00069
313.15 K | 1.51731 ± 0.00069
318.15 K | 1.51591 ± 0.00069
323.15 K | 1.51454 ± 0.00069
328.15 K | 1.51315 ± 0.00069
333.15 K | 1.51177 ± 0.00069
338.15 K | 1.51035 ± 0.00069
343.15 K | 1.50897 ± 0.00069
348.15 K | 1.50757 ± 0.00069
353.15 K | 1.5062 ± 0.00069

CCn1cc[n+](C)c1.NCC(=O)[O-] [1-ethyl-3-methylimidazolium ammonioacetate]
[1], 101 kPa, Stabinger viscometer
Conditions | viscosity [mPa·s]
293.15 K | 240.18 ± 14
298.15 K | 171.97 ± 8.2
303.15 K | 126.19 ± 5.1
308.15 K | 95.04 ± 3.3
313.15 K | 73.5 ± 2.3
318.15 K | 57.66 ± 1.6
323.15 K | 46.21 ± 1.4
328.15 K | 37.66 ± 1.1
333.15 K | 31.24 ± 0.91
338.15 K | 26.08 ± 0.76
343.15 K | 22.11 ± 0.65
348.15 K | 18.95 ± 0.55
353.15 K | 16.45 ± 0.48

[1], 101.33 kPa
Conditions | mass density [kg/m3]
293.15 K | 1164.3 ± 10
298.15 K | 1161.2 ± 10
303.15 K | 1158.1 ± 10
308.15 K | 1155 ± 10
313.15 K | 1152 ± 10
318.15 K | 1149 ± 10
323.15 K | 1146 ± 10
328.15 K | 1143 ± 10
333.15 K | 1139.9 ± 10
338.15 K | 1136.9 ± 10
343.15 K | 1133.8 ± 9.9
348.15 K | 1130.7 ± 9.9
353.15 K | 1127.4 ± 9.9

[2]
Conditions | refractive index
293.15 K | 1.52134 ± 0.00087
298.15 K | 1.51997 ± 0.00087
303.15 K | 1.5186 ± 0.00087
308.15 K | 1.51724 ± 0.00087
313.15 K | 1.51585 ± 0.00087
318.15 K | 1.5145 ± 0.00087
323.15 K | 1.51313 ± 0.00087
328.15 K | 1.51179 ± 0.00087
333.15 K | 1.51041 ± 0.00087
338.15 K | 1.50904 ± 0.00087
343.15 K | 1.50769 ± 0.00087
348.15 K | 1.50637 ± 0.00087
353.15 K | 1.50495 ± 0.00087

CCn1cc[n+](C)c1.C[C@H](N)C(=O)[O-] [1-ethyl-3-methylimidazolium L-alaninate]
[1], 101 kPa, Stabinger Viscometer
Conditions | viscosity [mPa·s]
293.15 K | 382.06 ± 28
298.15 K | 263.98 ± 16
303.15 K | 187.79 ± 9.8
308.15 K | 137.47 ± 6.2
313.15 K | 103.54 ± 4.1
318.15 K | 79.34 ± 2.8
323.15 K | 62.21 ± 2
328.15 K | 49.69 ± 1.6
333.15 K | 40.5 ± 1.3
338.15 K | 33.22 ± 1.1
343.15 K | 27.72 ± 0.91
348.15 K | 23.38 ± 0.77
353.15 K | 20.03 ± 0.66

[1], 101.33 kPa
Conditions | mass density [kg/m3]
293.15 K | 1126.3 ± 13
298.15 K | 1123 ± 13
303.15 K | 1119.8 ± 13
308.15 K | 1116.6 ± 13
313.15 K | 1113.5 ± 13
318.15 K | 1110.5 ± 13
323.15 K | 1107.5 ± 13
328.15 K | 1104.4 ± 13
333.15 K | 1101.3 ± 12
338.15 K | 1098.3 ± 12
343.15 K | 1095.2 ± 12
348.15 K | 1092.1 ± 12
353.15 K | 1088.9 ± 12

[2]
Conditions | refractive index
293.15 K | 1.51366 ± 0.0011
298.15 K | 1.51223 ± 0.0011
303.15 K | 1.51081 ± 0.0011
308.15 K | 1.50937 ± 0.0011
313.15 K | 1.50793 ± 0.0011
318.15 K | 1.50651 ± 0.0011
323.15 K | 1.50505 ± 0.0011
328.15 K | 1.50358 ± 0.0011
333.15 K | 1.50217 ± 0.0011
338.15 K | 1.50074 ± 0.0011
343.15 K | 1.49932 ± 0.0011
348.15 K | 1.49795 ± 0.0011
353.15 K | 1.49656 ± 0.0011

CCn1cc[n+](C)c1.N#C[C-](C#N)C#N [1-ethyl-3-methyl-1H-imidazolium tricyanomethanide]
[1], 101 kPa, Stabinger viscometer
Conditions | viscosity [mPa·s]
293.15 K | 16.62 ± 0.7
298.15 K | 14.19 ± 0.6
303.15 K | 12.18 ± 0.51
308.15 K | 10.58 ± 0.44
313.15 K | 9.02 ± 0.38
318.15 K | 8.2 ± 0.34
323.15 K | 7.31 ± 0.31
328.15 K | 6.56 ± 0.28
333.15 K | 5.72 ± 0.24
338.15 K | 5.38 ± 0.23
343.15 K | 4.91 ± 0.21
348.15 K | 4.5 ± 0.19
353.15 K | 3.98 ± 0.17

[1], 101 kPa
Conditions | mass density [kg/m3]
293.15 K | 1085 ± 4
298.15 K | 1081 ± 4
303.15 K | 1077 ± 4
308.15 K | 1074 ± 4
313.15 K | 1070 ± 4
318.15 K | 1067 ± 4
323.15 K | 1064 ± 4
328.15 K | 1060 ± 4
333.15 K | 1057 ± 4
338.15 K | 1054 ± 4
343.15 K | 1050 ± 4
348.15 K | 1047 ± 4
353.15 K | 1043 ± 4

[2]
Conditions | refractive index
293.15 K | 1.51454 ± 0.00063
298.15 K | 1.51286 ± 0.00063
303.15 K | 1.51114 ± 0.00063
308.15 K | 1.50938 ± 0.00063
313.15 K | 1.50765 ± 0.00063
318.15 K | 1.50595 ± 0.00063
323.15 K | 1.50419 ± 0.00063
328.15 K | 1.50255 ± 0.00063
333.15 K | 1.50087 ± 0.00063
338.15 K | 1.49921 ± 0.00063
343.15 K | 1.49757 ± 0.00063
348.15 K | 1.49593 ± 0.00063
353.15 K | 1.49429 ± 0.00063

CCn1cc[n+](C)c1.NCCS(=O)(=O)[O-] [1-ethyl-3-methylimidazolium taurinate]
[1], 101 kPa, Stabinger Viscometer
Conditions | viscosity [mPa·s]
293.15 K | 760.89 ± 72
298.15 K | 514.67 ± 42
303.15 K | 359.36 ± 26
308.15 K | 258.04 ± 16
313.15 K | 190.44 ± 10
318.15 K | 143.31 ± 6.6
323.15 K | 110.35 ± 4.5
328.15 K | 86.59 ± 3.1
333.15 K | 69.36 ± 2.3
338.15 K | 56.05 ± 1.8
343.15 K | 46.1 ± 1.5
348.15 K | 38.4 ± 1.3
353.15 K | 32.53 ± 1.1

[1], 101.33 kPa
Conditions | mass density [kg/m3]
293.15 K | 1255 ± 15
298.15 K | 1251.5 ± 15
303.15 K | 1248.1 ± 15
308.15 K | 1244.8 ± 15
313.15 K | 1241.6 ± 15
318.15 K | 1238.6 ± 14
323.15 K | 1235.5 ± 14
328.15 K | 1232.4 ± 14
333.15 K | 1229.2 ± 14
338.15 K | 1226.1 ± 14
343.15 K | 1223 ± 14
348.15 K | 1219.9 ± 14
353.15 K | 1216.8 ± 14

[2]
Conditions | refractive index
293.15 K | 1.5135 ± 0.0019
298.15 K | 1.51217 ± 0.0019
303.15 K | 1.51084 ± 0.0019
308.15 K | 1.5095 ± 0.0019
313.15 K | 1.50816 ± 0.0019
318.15 K | 1.5068 ± 0.0019
323.15 K | 1.50543 ± 0.0019
328.15 K | 1.50403 ± 0.0019
333.15 K | 1.5027 ± 0.0019
338.15 K | 1.50136 ± 0.0019
343.15 K | 1.49997 ± 0.0019
348.15 K | 1.4986 ± 0.0019
353.15 K | 1.49726 ± 0.0019

CC[n+]1ccn(C)c1.N[C@@H](CO)C(=O)[O-] [3-ethyl-1-methyl-1H-imidazolium L-serinate]
[1], 101 kPa, Stabinger Viscometer
Conditions | viscosity [mPa·s]
293.15 K | 3796.8 ± 560
298.15 K | 2235.5 ± 290
303.15 K | 1376.2 ± 160
308.15 K | 882.82 ± 88
313.15 K | 588.27 ± 51
318.15 K | 405.12 ± 30
323.15 K | 287.6 ± 18
328.15 K | 209.91 ± 11
333.15 K | 157.29 ± 7.5
338.15 K | 119.86 ± 5
343.15 K | 93.36 ± 3.5
348.15 K | 74.03 ± 2.5
353.15 K | 59.91 ± 1.9

[1], 101.33 kPa
Conditions | mass density [kg/m3]
293.15 K | 1206.8 ± 14
298.15 K | 1203.7 ± 14
303.15 K | 1200.5 ± 14
308.15 K | 1197.3 ± 14
313.15 K | 1194 ± 14
318.15 K | 1190.9 ± 14
323.15 K | 1187.8 ± 14
328.15 K | 1184.7 ± 14
333.15 K | 1181.7 ± 14
338.15 K | 1178.7 ± 14
343.15 K | 1175.7 ± 14
348.15 K | 1172.8 ± 14
353.15 K | 1169.7 ± 14

[2]
Conditions | refractive index
293.15 K | 1.52699 ± 0.0041
298.15 K | 1.52565 ± 0.0041
303.15 K | 1.52429 ± 0.0041
308.15 K | 1.52294 ± 0.0041
313.15 K | 1.52159 ± 0.0041
318.15 K | 1.52022 ± 0.0041
323.15 K | 1.51887 ± 0.0041
328.15 K | 1.51755 ± 0.0041
333.15 K | 1.5162 ± 0.0041
338.15 K | 1.51486 ± 0.0041
343.15 K | 1.51353 ± 0.0041
348.15 K | 1.5122 ± 0.0041
353.15 K | 1.51084 ± 0.0041

Source: the NIST ThermoML archive (doi:10.1021/acs.jced.5b00242)
